Here are results for 1 compound from patent US10383848B2, “Indole-based therapeutics” (Creighton University, priority 2016, dated 2019).

Values after ≈ are worked out from the molar mass of the structure shown.

Experiment [1] deals with M. abscessus ATCC 19977. Nature of the experiment: MIC, resazurin microtiter assay. Type of experiment: cell-based. The conditions noted are these: Mueller Hinton II. (In general: Resazurin is reduced to fluorescent resorufin, in cell work by metabolically active cells.)
Experiment [2] concerns M. abscessus DCI #21. As to the kind of experiment: MIC, resazurin microtiter assay. Type of experiment: cell-based. The conditions noted are these: Mueller Hinton II.
Experiment [3] deals with M. massiliense CIP 108297. As to the kind of experiment: MIC, resazurin microtiter assay. The class given is cell-based. The conditions noted are these: Mueller Hinton II.
For experiment [4], the system named is M. massiliense CRM 0019. As to the kind of experiment: MIC, resazurin microtiter assay. To be noted: Mueller Hinton II. The class given is cell-based.
The test system of experiment [5] is M. bolletii ATCC 14472. Nature of the experiment: MIC, resazurin microtiter assay. The class given is cell-based. The conditions noted are these: Mueller Hinton II.
Experiment [6] has as its system M. chelonae ATCC 35752. As to the kind of experiment: MIC, resazurin microtiter assay. Type of experiment: cell-based. To be noted: Mueller Hinton II.
Experiment [7] concerns M. smegmatis mc^2155. As to the kind of experiment: MIC, resazurin microtiter assay. Type of experiment: cell-based. To be noted: 7H9-ADC-0.05% Tween 80.
For experiment [8], the system named is M. avium 104. As to the kind of experiment: MIC, resazurin microtiter assay. The conditions noted are these: Mueller Hinton II. Type of experiment: cell-based.
Experiment [9] relates to M. intracellulare 1956. Nature of the experiment: MIC, resazurin microtiter assay. The class given is cell-based. The conditions noted are these: Mueller Hinton II.
Experiment [10] has as its system M. xenopi WT. Nature of the experiment: MIC, resazurin microtiter assay. The conditions noted are these: Mueller Hinton II. Type of experiment: cell-based.
The test system of experiment [11] is P. aeruginosa PAO-1. As to the kind of experiment: MIC, resazurin microtiter assay. The class given is cell-based, Pseudomonas aeruginosa. The conditions noted are these: Mueller Hinton II.
The test system of experiment [12] is S. aureus ATCC25923. Nature of the experiment: MIC, resazurin microtiter assay. To be noted: Staphylococcus aureus, ATCC25923; Mueller Hinton II; read-out: MIC S. aureus ATCC25923. Type of experiment: cell-based.
In experiment [13] the test system is mycobacteria. Nature of the experiment: organism not typed. The class given is cell-based. To be noted: lowest concentration reducing CFU by 90% relative to the inoculum; strain not stated; read-out: MBC90.

What is called MIC is the smallest concentration in the dilution series that meets the test's criterion for growth inhibition. For the compound `Cc1cc(C)c2cc(C(=O)NC3CCC(C)CC3)[nH]c2c1` (centres unmarked) [Compound 30, N-4-methylcyclohexyl-4,6-dimethyl-1H-indole-2-carboxamide], the “MIC M. abscessus ATCC 19977” value in experiment [1] was no more than 0.06 µg/mL. Further, the “MIC M. abscessus DCI #21” value in [2] was no more than 0.06 µg/mL. Also, in [3], the “MIC M. massiliense CIP 108297” value was no more than 0.06 µg/mL. For the same compound, the “MIC M. massiliense CRM 0019” value in [4] was no more than 0.06 µg/mL. Further, in [5], the “MIC M. bolletii ATCC 14472” value was no more than 0.06 µg/mL. In experiment [6], the “MIC M. chelonae ATCC 35752” value is no more than 0.06 µg/mL. Moreover, the “MIC M. smeg. mc^2155” value in experiment [7] is greater than 20 µg/mL. The “MIC M. avium 104” value in experiment [8] was greater than 32 µg/mL. Further, the “MIC M. avium Intracellulare 1956” value in experiment [9] is greater than 32 µg/mL. Further, the “MIC M. xenopi WT” value in experiment [10] was in the range of 0.5 to 1 µg/mL. Further, the “MIC P. aeruginosa PAO-1” value in experiment [11] was “inactive”. Moreover, the MIC was greater than 160 µg/mL in experiment [11] (Pseudomonas aeruginosa, PAO1, read-out: MIC P. aeruginosa PAO-1) and greater than 160 µg/mL in experiment [12]. In addition, the MBC in experiment [13] came out at 0.03 µg/mL (≈ 0.105 µM).
